From ChEMBL document CHEMBL4483862, “Open-source discovery of chemical leads for next-generation chemoprotective antimalarials” (2018)

System: Plasmodium berghei
Experiment: Luciferase/luciferin-expressing antifolate-resistant parasites were used to infect a culture of HepG2 cells that were pre-incubated with compounds. Infected hepatocytes emit light due to the luciferase reaction. Assay results are presented as the percent inhibition of light emission compared to control. […]
Format: functional
Conditions: sporozoite; for IC90: read-out: LUCIFERASE INFECTION ASSAY - IC90

Compound	IC90	further results
CNC(=O)CN(c1cc(OCCOC)c(Cl)cc1Cl)S(=O)(=O)c1ccc(OC)cc1	0.87 µM	IC50 (HEPG2TOX_HILL_SLOPE 3.52, HEPG2TOX_R_SQUARED 0.986, PBLUC_HILL_SLOPE 18.4, PBLUC_R_SQUARED 0.669, read-out: LUCIFERASE INFECTION ASSAY - IC50): 0.771 µM
Clc1cccc(Cl)c1/C=C/c1cc[nH]n1	> 13.8 µM	IC50 (HEPG2TOX_HILL_SLOPE 3.46, HEPG2TOX_R_SQUARED 0.979, PBLUC_HILL_SLOPE 12.7, PBLUC_R_SQUARED 0.349, read-out: LUCIFERASE INFECTION ASSAY - IC50): 12 µM
c1ccc(-c2nnc(-c3ccccn3)nc2-c2ccccc2)cc1	4.22 µM	IC50 (HEPG2TOX_HILL_SLOPE 3.54, HEPG2TOX_R_SQUARED 0.979, PBLUC_HILL_SLOPE 15.1, PBLUC_R_SQUARED 0.651, read-out: LUCIFERASE INFECTION ASSAY - IC50): 3.65 µM
OCc1cccc(-c2cnc3ccc(-c4cccc(Oc5ccccc5)c4)nn23)c1	4.64 µM	IC50 (HEPG2TOX_HILL_SLOPE 3.57, HEPG2TOX_R_SQUARED 0.188, PBLUC_HILL_SLOPE 2.99, PBLUC_R_SQUARED 0.337, read-out: LUCIFERASE INFECTION ASSAY - IC50): 2.23 µM
CCN(CC)c1ccc(NC(=O)CCc2ccccc2)cc1C	6.81 µM	IC50 (HEPG2TOX_HILL_SLOPE 3.47, HEPG2TOX_R_SQUARED 0.947, PBLUC_HILL_SLOPE 2.46, PBLUC_R_SQUARED 0.836, read-out: LUCIFERASE INFECTION ASSAY - IC50): 2.79 µM
CNc1nc2cnc(Nc3ccccc3)cc2n1Cc1ccco1	> 10 µM	IC50 (HEPG2TOX_HILL_SLOPE 3.53, HEPG2TOX_R_SQUARED 0.949, PBLUC_HILL_SLOPE 2.74, PBLUC_R_SQUARED 0.404, read-out: LUCIFERASE INFECTION ASSAY - IC50): 4.93 µM
Nc1c(-c2ccccc2)c(CN2CCN(Cc3ccccc3)CC2)nn1-c1ccc(Cl)cc1	8.97 µM	IC50 (HEPG2TOX_HILL_SLOPE 3.47, HEPG2TOX_R_SQUARED 0.813, PBLUC_HILL_SLOPE 2.28, PBLUC_R_SQUARED 0.79, read-out: LUCIFERASE INFECTION ASSAY - IC50): 3.42 µM
CN(CCCNC(=O)CSc1nnc(-c2c[nH]c3ccccc23)n1C1CC1)c1ccccc1	9.32 µM	IC50 (HEPG2TOX_HILL_SLOPE 3.48, HEPG2TOX_R_SQUARED 0.658, PBLUC_HILL_SLOPE 4.72, PBLUC_R_SQUARED 0.65, read-out: LUCIFERASE INFECTION ASSAY - IC50): 5.85 µM
CC1Cc2cc(S(N)(=O)=O)ccc2N1C(=O)CN1CCCN(c2ccc(C(F)(F)F)cn2)CC1 (centres undefined)	> 10 µM	IC50 (HEPG2TOX_HILL_SLOPE 3.49, HEPG2TOX_R_SQUARED 0.873, read-out: LUCIFERASE INFECTION ASSAY - IC50): > 10 µM
OCc1cccc(-c2cnc3ccc(-c4ccccc4)nn23)c1	7.66 µM	IC50 (HEPG2TOX_HILL_SLOPE 3.47, HEPG2TOX_R_SQUARED 0.7, PBLUC_HILL_SLOPE 5.19, PBLUC_R_SQUARED 0.0412, read-out: LUCIFERASE INFECTION ASSAY - IC50): 5.02 µM
CCCNS(=O)(=O)c1cccc(C(=O)N2CCN(c3cccc(OC)c3)CC2)c1	> 10 µM	IC50 (HEPG2TOX_HILL_SLOPE 3.58, HEPG2TOX_R_SQUARED 0.848, read-out: LUCIFERASE INFECTION ASSAY - IC50): > 10 µM
COc1ccc2cc(C(C)C(=O)N/N=C/c3ccccc3O)ccc2c1 (centres undefined)	> 9.47 µM	IC50 (HEPG2TOX_HILL_SLOPE 3.47, HEPG2TOX_R_SQUARED 0.909, PBLUC_HILL_SLOPE 4.89, PBLUC_R_SQUARED 0.506, read-out: LUCIFERASE INFECTION ASSAY - IC50): 6.69 µM
CN(CC1COc2ccccc2O1)c1ccc(C#N)cn1 (centres undefined)	> 10 µM	IC50 (HEPG2TOX_HILL_SLOPE 3.52, HEPG2TOX_R_SQUARED 0.623, PBLUC_HILL_SLOPE 1.89, PBLUC_R_SQUARED 0.914, read-out: LUCIFERASE INFECTION ASSAY - IC50): 5.89 µM
CN(C)CCCNC(=O)c1ccc(-c2cn3c(-c4ccc(Cl)cc4)cnc3cn2)cc1	3.76 µM	IC50 (HEPG2TOX_HILL_SLOPE 3.47, HEPG2TOX_R_SQUARED 0.818, PBLUC_HILL_SLOPE 9.43, PBLUC_R_SQUARED 0.518, read-out: LUCIFERASE INFECTION ASSAY - IC50): 2.98 µM
Fc1ccc(Cc2ccc3ncc(-c4ccncc4)n3n2)cc1	9.84 µM	IC50 (HEPG2TOX_HILL_SLOPE 3.58, HEPG2TOX_R_SQUARED 0.787, PBLUC_HILL_SLOPE 13.1, PBLUC_R_SQUARED 0.419, read-out: LUCIFERASE INFECTION ASSAY - IC50): 8.32 µM
Cc1noc(N)c1-c1nc(-c2cccc(C(F)(F)F)c2)cs1	> 10.1 µM	IC50 (HEPG2TOX_HILL_SLOPE 3.53, HEPG2TOX_R_SQUARED 0.703, read-out: LUCIFERASE INFECTION ASSAY - IC50): > 10.1 µM

Compound	IC90	further results
N#Cc1ccccc1OC(=O)Nc1ccc(SC(F)(F)F)cc1	1.82 µM	IC50 (HEPG2TOX_HILL_SLOPE 3.54, HEPG2TOX_R_SQUARED 0.941, PBLUC_HILL_SLOPE 4.88, PBLUC_R_SQUARED 0.753, read-out: LUCIFERASE INFECTION ASSAY - IC50): 1.16 µM
Cc1cc(C(=O)CN(Cc2ccco2)S(=O)(=O)/C=C/c2ccccc2)c(C)n1C	> 10 µM	IC50 (HEPG2TOX_HILL_SLOPE 3.54, HEPG2TOX_R_SQUARED 0.932, PBLUC_HILL_SLOPE 9.57, PBLUC_R_SQUARED 0.198, read-out: LUCIFERASE INFECTION ASSAY - IC50): 8.84 µM
Cc1cc(C(C)(C)C)cc(C(C)(C)C)[s+]1	7.78 µM	IC50 (HEPG2TOX_HILL_SLOPE 3.48, HEPG2TOX_R_SQUARED 0.99, PBLUC_HILL_SLOPE 2.71, PBLUC_R_SQUARED 0.511, read-out: LUCIFERASE INFECTION ASSAY - IC50): 3.46 µM
COc1cc(Nc2ncc3c(n2)CCN(C(=O)Nc2ccc(F)c(Cl)c2)C3)cc(OC)c1OC	> 6.76 µM	IC50 (HEPG2TOX_HILL_SLOPE 3.56, HEPG2TOX_R_SQUARED 0.576, PBLUC_HILL_SLOPE 6.46, PBLUC_R_SQUARED 0.101, read-out: LUCIFERASE INFECTION ASSAY - IC50): 5.03 µM
CCN1C(=O)N(C2Cc3ccccc3C2)C(=O)C12CCN(Cc1cc3ccccc3[nH]1)CC2	> 7.46 µM	IC50 (HEPG2TOX_HILL_SLOPE 3.47, HEPG2TOX_R_SQUARED 0.984, PBLUC_HILL_SLOPE 2.65, PBLUC_R_SQUARED 0.483, read-out: LUCIFERASE INFECTION ASSAY - IC50): 3.77 µM
O=C(OCc1csc(-c2ccccc2)n1)c1cc([N+](=O)[O-])ccc1N1CCC(Cc2ccccc2)CC1	> 10 µM	IC50 (HEPG2TOX_HILL_SLOPE 3.49, HEPG2TOX_R_SQUARED 0.926, PBLUC_HILL_SLOPE 12.2, PBLUC_R_SQUARED 0.465, read-out: LUCIFERASE INFECTION ASSAY - IC50): 8.99 µM
CC(NC(=O)c1nc(-c2ccccc2)n(-c2ccccc2)n1)C12CC3CC(CC(C3)C1)C2 (centres undefined)	5.28 µM	IC50 (HEPG2TOX_HILL_SLOPE 3.46, HEPG2TOX_R_SQUARED 0.871, PBLUC_HILL_SLOPE 90.3, PBLUC_R_SQUARED 0.516, read-out: LUCIFERASE INFECTION ASSAY - IC50): 5.15 µM
O=C(Nc1nc2ccccc2s1)N1CC=C(c2c[nH]c3ncccc23)CC1	> 10 µM	IC50 (HEPG2TOX_HILL_SLOPE 3.51, HEPG2TOX_R_SQUARED 0.954, PBLUC_HILL_SLOPE 3.11, PBLUC_R_SQUARED 0.433, read-out: LUCIFERASE INFECTION ASSAY - IC50): 6.66 µM
O=c1c(Cl)c(Cl)cnn1-c1ccc(F)c(Cl)c1	4.35 µM	IC50 (HEPG2TOX_HILL_SLOPE 3.48, HEPG2TOX_R_SQUARED 0.867, PBLUC_HILL_SLOPE 16.6, PBLUC_R_SQUARED 0.498, read-out: LUCIFERASE INFECTION ASSAY - IC50): 3.81 µM
COc1ccc(O)c(C(=O)c2c[nH]c(C(=O)N3CCCC3)c2)c1	> 10 µM	IC50 (HEPG2TOX_HILL_SLOPE 3.52, HEPG2TOX_R_SQUARED 0.659, PBLUC_HILL_SLOPE 0.979, PBLUC_R_SQUARED 0.275, read-out: LUCIFERASE INFECTION ASSAY - IC50): > 10 µM
OC(COc1ccc(OC(F)(F)F)cc1)CN1CCN(c2nc3ccc(Cl)cc3s2)CC1 (centres undefined)	> 6.76 µM	IC50 (HEPG2TOX_HILL_SLOPE 3.53, HEPG2TOX_R_SQUARED 0.823, PBLUC_HILL_SLOPE 2.94, PBLUC_R_SQUARED 0.35, read-out: LUCIFERASE INFECTION ASSAY - IC50): 4.19 µM
CC(C)NC(=O)c1c(NC(=O)c2cccc(F)c2)nc2ccccn12	7.41 µM	IC50 (HEPG2TOX_HILL_SLOPE 3.53, HEPG2TOX_R_SQUARED 0.8, PBLUC_HILL_SLOPE 29.8, PBLUC_R_SQUARED 0.0967, read-out: LUCIFERASE INFECTION ASSAY - IC50): 6.88 µM
O=S(=O)(c1ccc(Cl)cc1)c1nc(Nc2ccccc2)sc1Cl	> 10 µM	IC50 (HEPG2TOX_HILL_SLOPE 3.54, HEPG2TOX_R_SQUARED 0.784, PBLUC_HILL_SLOPE 12.5, PBLUC_R_SQUARED 0.109, read-out: LUCIFERASE INFECTION ASSAY - IC50): 9.24 µM
COC(=O)c1cnc(NC(=O)/C=C/c2ccc([N+](=O)[O-])o2)s1	> 10 µM	IC50 (HEPG2TOX_HILL_SLOPE 3.5, HEPG2TOX_R_SQUARED 0.48, read-out: LUCIFERASE INFECTION ASSAY - IC50): > 10 µM
COCCN1COc2c(cc(Cl)c3cccnc23)C1	5.37 µM	IC50 (HEPG2TOX_HILL_SLOPE 3.55, HEPG2TOX_R_SQUARED 0.927, PBLUC_HILL_SLOPE 12, PBLUC_R_SQUARED 0.223, read-out: LUCIFERASE INFECTION ASSAY - IC50): 4.47 µM
Cn1ccc2cc(-c3cnc4cnc(-c5ccc(F)c(Cl)c5)cn34)ccc21	3.55 µM	IC50 (HEPG2TOX_HILL_SLOPE 3.52, HEPG2TOX_R_SQUARED 0.929, PBLUC_HILL_SLOPE 14.4, PBLUC_R_SQUARED 0.566, read-out: LUCIFERASE INFECTION ASSAY - IC50): 3.05 µM
